Measurements: ChEMBL document CHEMBL1127932, “6-isoxazolinyl and isoxazolidinyl substituted quinazolinones as angiotensin II receptor antagonists” (Bioorg Med Chem Lett, 1994)

Tests used:
[1] = target: T1, Type-1 angiotensin II receptor (Bos taurus, UniProt P25104); assay: In vitro Angiotensin II receptor antagonism in bovine adrenal cortex tissue.; type: functional, tissue-based
T1 sequence (P25104 whole entry): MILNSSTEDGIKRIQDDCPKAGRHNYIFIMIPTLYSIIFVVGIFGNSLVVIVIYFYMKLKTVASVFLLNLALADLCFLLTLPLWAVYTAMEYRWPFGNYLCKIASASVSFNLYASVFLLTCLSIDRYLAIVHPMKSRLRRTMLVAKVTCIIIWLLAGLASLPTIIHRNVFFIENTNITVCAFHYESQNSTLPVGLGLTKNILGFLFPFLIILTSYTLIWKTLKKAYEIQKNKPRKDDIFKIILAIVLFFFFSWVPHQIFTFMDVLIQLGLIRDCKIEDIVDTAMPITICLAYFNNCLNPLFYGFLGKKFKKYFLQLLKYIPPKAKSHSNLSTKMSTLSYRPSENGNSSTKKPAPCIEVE

[2] = target: T2, Angiotensin II receptor (Rattus norvegicus, UniProt P29089+P25095+P35351); assay: In vitro Angiotensin II receptor antagonist activity in rat adrenal cortex tissue.; type: functional, tissue-based
T2 sequence (P29089 whole entry): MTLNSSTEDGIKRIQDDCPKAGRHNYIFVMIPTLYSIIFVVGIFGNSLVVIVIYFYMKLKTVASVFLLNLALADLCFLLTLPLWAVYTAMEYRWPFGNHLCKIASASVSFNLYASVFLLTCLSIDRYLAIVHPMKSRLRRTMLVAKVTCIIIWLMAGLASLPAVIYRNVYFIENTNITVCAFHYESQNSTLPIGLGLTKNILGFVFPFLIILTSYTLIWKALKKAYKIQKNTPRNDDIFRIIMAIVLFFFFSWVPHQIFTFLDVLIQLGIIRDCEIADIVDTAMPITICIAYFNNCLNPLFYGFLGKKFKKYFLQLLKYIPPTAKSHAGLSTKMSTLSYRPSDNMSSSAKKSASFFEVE
T2 sequence (P25095 whole entry): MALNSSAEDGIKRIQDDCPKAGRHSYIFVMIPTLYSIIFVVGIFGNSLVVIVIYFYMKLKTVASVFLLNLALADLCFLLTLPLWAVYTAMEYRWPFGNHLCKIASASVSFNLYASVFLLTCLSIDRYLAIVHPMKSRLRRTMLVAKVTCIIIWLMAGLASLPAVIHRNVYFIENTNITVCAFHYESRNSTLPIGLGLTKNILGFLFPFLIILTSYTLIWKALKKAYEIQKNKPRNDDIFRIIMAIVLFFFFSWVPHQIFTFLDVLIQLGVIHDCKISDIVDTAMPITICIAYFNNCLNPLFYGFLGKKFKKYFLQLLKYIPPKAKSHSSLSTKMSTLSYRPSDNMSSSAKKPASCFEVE
T2 sequence (P35351 whole entry): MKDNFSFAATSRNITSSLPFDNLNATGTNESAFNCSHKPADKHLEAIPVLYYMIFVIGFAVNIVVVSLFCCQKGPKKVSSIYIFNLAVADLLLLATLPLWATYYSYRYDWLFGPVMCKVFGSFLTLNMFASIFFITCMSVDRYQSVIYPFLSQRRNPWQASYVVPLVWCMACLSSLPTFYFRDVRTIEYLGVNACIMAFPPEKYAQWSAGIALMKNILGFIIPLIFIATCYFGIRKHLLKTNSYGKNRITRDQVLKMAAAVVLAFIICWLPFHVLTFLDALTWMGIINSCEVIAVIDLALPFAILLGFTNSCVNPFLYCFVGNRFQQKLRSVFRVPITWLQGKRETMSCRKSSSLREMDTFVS

[3] = system: Rattus norvegicus; assay: Percent inhibition of AII vasopressor response in SHR at 5 mg/kg of oral dose after 5 hr in hypertensive rats; type: functional
[4] = system: Rattus norvegicus; assay: In vivo change in mean arterial blood pressure in conscious renin-dependent […] hypertensive rats at 1 mg/kg, p.o. after 2 hr; type: functional; conditions: route oral
[5] = system: Rattus norvegicus; assay: In vivo change in mean arterial blood pressure in conscious renin-dependent […] hypertensive rats at 1 mg/kg, p.o. after 30 min; type: functional; conditions: route oral

| Compound | IC50 [1] [nM] | further results |
| --- | --- | --- |
| CCCCc1nc2ccc(C3(C(=O)N4CCCC4)C[C@H]4CCCN4O3)cc2c(=O)n1Cc1ccc(-c2ccccc2-c2nnn[nH]2)cc1 (stereo not given in full) | 69 |  |
| CCCCc1nc2ccc(C3CCCO3)cc2c(=O)n1Cc1ccc(-c2ccccc2-c2nn[nH]n2)cc1 (stereo not given) |  | IC50 [2]: 11 nM |
| CCCCc1nc2ccc(-c3cccs3)cc2c(=O)n1Cc1ccc(-c2ccccc2-c2nn[nH]n2)cc1 |  | IC50 [2]: 44 nM |
| CCCCc1nc2ccc([C@]3(CO)C[C@H]4CCCN4O3)cc2c(=O)n1Cc1ccc(-c2ccccc2-c2nnn[nH]2)cc1 | 35 |  |
| CCCCc1nc2ccc([C@@]3(C)C[C@H]4CCC(C)(C)N4O3)cc2c(=O)n1Cc1ccc(-c2ccccc2-c2nnn[nH]2)cc1 | 70 |  |
| CCCCc1nc2ccc(C3C=CCO3)cc2c(=O)n1Cc1ccc(-c2ccccc2-c2nn[nH]n2)cc1 (stereo not given) |  | IC50 [2]: 5 nM |
| CCCCc1nc2ccc([C@]3(c4ccccc4)C[C@H]4CCCN4O3)cc2c(=O)n1Cc1ccc(-c2ccccc2-c2nnn[nH]2)cc1 | 56 |  |
| CCCCc1nc2ccc(C(C)(C)OC)cc2c(=O)n1Cc1ccc(-c2ccccc2-c2nn[nH]n2)cc1 [CL-329167] | 31 |  |
| CCCCc1nc2ccc([C@]3(C(=O)O)C[C@H]4CCCN4O3)cc2c(=O)n1Cc1ccc(-c2ccccc2-c2nnn[nH]2)cc1 | 46 |  |
| CCCCc1nc2ccc(C3CC(C(=O)O)=NO3)cc2c(=O)n1Cc1ccc(-c2ccccc2-c2nn[nH]n2)cc1 (stereo not given) | 500 |  |
| CCCCc1nc2ccc(C3CC(c4cc(C)co4)=NO3)cc2c(=O)n1Cc1ccc(-c2ccccc2-c2nnn[nH]2)cc1 (stereo not given) | 180 |  |
| CCCCc1nc2ccc([C@]3(C(=O)OC)C[C@H]4CCCN4O3)cc2c(=O)n1Cc1ccc(-c2ccccc2-c2nnn[nH]2)cc1 | 79 |  |
| CCCCc1nc2ccc([C@]3(C(=O)N(C)C)C[C@H]4CCCN4O3)cc2c(=O)n1Cc1ccc(-c2ccccc2-c2nnn[nH]2)cc1 | 57 |  |
| CCCCc1nc2ccc([C@@]3(CC)C[C@H]4CCCN4O3)cc2c(=O)n1Cc1ccc(-c2ccccc2-c2nnn[nH]2)cc1 | 58 |  |
| CCCCc1nc2ccc([C@]3(CC)C[C@H]4CCCN4O3)cc2c(=O)n1Cc1ccc(-c2ccccc2-c2nnn[nH]2)cc1 | 83 |  |
| CCCCc1nc2ccc([C@H]3ON4CCCC4C3C(=O)OCC)cc2c(=O)n1Cc1ccc(-c2ccccc2-c2nn[nH]n2)cc1 (stereo not given in full) | 69 |  |
| CCCCc1nc2ccc([C@@]3(C)C[C@H]4CCCN4O3)cc2c(=O)n1Cc1ccc(-c2ccccc2-c2nn[nH]n2)cc1 | 55 |  |
| CCCCc1nc(Cl)c(CO)n1Cc1ccc(-c2ccccc2-c2nnn[nH]2)cc1 [LOSARTAN] | 330 | inhibition in vivo at 5 mg/kg [3]: 50% |
| CCCCc1nc2ccc([C@@H]3C[C@@]4(C)CCCCN4O3)cc2c(=O)n1Cc1ccc(-c2ccccc2-c2nn[nH]n2)cc1 | 65 |  |
| CCCCc1nc2ccc([C@@H]3C[C@H]4CCCN4O3)cc2c(=O)n1Cc1ccc(-c2ccccc2-c2nnn[nH]2)cc1 | 32 |  |
| CCCCc1nc2ccc(-c3ccco3)cc2c(=O)n1Cc1ccc(-c2ccccc2-c2nn[nH]n2)cc1 |  | IC50 [2]: 47 nM |
| CCCCc1nc2ccc(C3CC(c4cc(C)cs4)=NO3)cc2c(=O)n1Cc1ccc(-c2ccccc2-c2nnn[nH]2)cc1 (stereo not given) | 410 |  |
| CCCCc1nc2ccc(C3(C(=O)N4CCCCC4)C[C@H]4CCCN4O3)cc2c(=O)n1Cc1ccc(-c2ccccc2-c2nn[nH]n2)cc1 (stereo not given in full) | 61 |  |
| CCCCc1nc2ccc([C@@H]3C[C@H]4CCC(C)(C)N4O3)cc2c(=O)n1Cc1ccc(-c2ccccc2-c2nnn[nH]2)cc1 | 39 |  |
| CCCCc1nc2ccc(C3(C)CC(C(=O)OCC)=NO3)cc2c(=O)n1Cc1ccc(-c2ccccc2-c2nn[nH]n2)cc1 (stereo not given) | 140 |  |
| CCCCc1nc2ccc([C@]3(C)C[C@H]4CCCN4O3)cc2c(=O)n1Cc1ccc(-c2ccccc2-c2nn[nH]n2)cc1 | 27 | Activity [4]: -5.5 mmHg; Activity [5]: -3 mmHg |
| CCCCc1nc2ccc([C@]3(C)C[C@H]4CCC(C)(C)N4O3)cc2c(=O)n1Cc1ccc(-c2ccccc2-c2nnn[nH]2)cc1 | 65 |  |
